{
  "source": "paper PMC3238500",
  "about": "(Archives of biochemistry and biophysics, 2011)",
  "key": {"[1]": {"target": "T1, pyruvate carboxylase (RePC) (Rhizobium etli, UniProt Q2K340)", "format": "biochemical"}, "[2]": {"target": "T1, pyruvate carboxylase (RePC)", "format": "biochemical", "remark": "listed apart in the source"}, "[3]": {"target": "T1, pyruvate carboxylase (RePC)", "format": "binding"}, "[4]": {"target": "T1, pyruvate carboxylase (RePC)", "test": "Stopped-flow fluorescence kinetics of MgTNP-ATP binding to pyruvate carboxylase", "details": "for kobs1 (fast phase of binding) / kobs2 (intermediate phase of binding): 0.5 μM enzyme, double exponential fit; for k-2 / K2 (equilibrium constant between two conformational states, k-2/k2) / k2: intermediate phase"}},
  "note": "Where two headings read alike, the source gives them in different places.",
  "data": [
    {"molecule": "Nc1ncnc2c1ncn2[C@@H]1O[C@H](COP(=O)(O)OP(=O)([O-])OP(=O)([O-])O)[C@@H](O)[C@H]1O.[Mg+2]", "note": "[MgATP]", "values": [
      {"measurement": "Km", "setting": "[1]; MgATP varied, absence of acetyl CoA, fit to equation (iii), Fig. 6a", "value": "150 ± 20", "unit": "µM"},
      {"measurement": "Ki", "setting": "[1]; read-out: Ki (substrate inhibition), MgATP varied, absence of acetyl CoA, fit to equation (iii), Fig. 6a", "value": "8.9 ± 1.2", "unit": "mM"},
      {"measurement": "Hill coefficient", "setting": "[2]; activation by MgATP, absence of acetyl CoA, Fig. 6b", "value": "3.1 ± 0.5"},
      {"measurement": "increase in activity", "setting": "[2]; between 2 mM and saturating MgATP, absence of acetyl CoA", "value": "approximately 16 fold"},
      {"measurement": "apparent Ka (activation of ATP cleavage)", "setting": "[2]; super-catalytic MgATP, absence of acetyl CoA, fit to equation (iv), Fig. 6b", "value": "5.0 ± 0.4", "unit": "mM"},
      {"measurement": "further decrease in fluorescence", "setting": "[3]; addition of 2.5 mM MgATP to 5 μM MgTNP-ATP + 10 μM enzyme + 0.25 mM acetyl CoA", "value": "approximately 13%"},
      {"measurement": "effect on kinetics of MgTNP-ATP binding", "setting": "[4]; 1 mM MgATP in both syringes, 10 μM MgTNP-ATP", "value": "essentially identical"}
    ]},
    {"molecule": "Nc1ncnc2c1ncn2[C@@H]1O[C@H](COP(=O)(O)OP(=O)(O)OP(=O)(O)O)[C@H]2OC3(O[C@H]21)C([N+](=O)[O-])=CC(=[N+]([O-])[O-])C=C3[N+](=O)[O-]", "note": "(stereo partly drawn) [MgTNP-ATP, 2′,3′-O-(2,4,6-trinitrophenyl) adenosine 5′-triphosphate]", "values": [
      {"measurement": "kcat2 for the activation by MgTNP-ATP", "setting": "[1]; absence of acetyl CoA, fit to equation (i), Fig. 4c", "value": "1.9 ± 0.1", "unit": "s⁻¹"},
      {"measurement": "nt (Hill coefficient)", "setting": "[1]; activation by MgTNP-ATP in the absence of acetyl CoA, fit to equation (i), Fig. 4c", "value": "2.3 ± 0.6"},
      {"measurement": "nt (Hill coefficient)", "setting": "[1]; activation by MgTNP-ATP, global fit to equation (ii), Fig. 4b", "value": "2.5 ± 0.4"},
      {"measurement": "substrate in the overall pyruvate carboxylation reaction", "setting": "[1]; concentrations up to 0.25 mM", "value": "not found to be a substrate"},
      {"measurement": "kcat2 for the reaction activated by MgTNP-ATP", "setting": "[1]; global fit to equation (ii), Fig. 4b", "value": "2.0 ± 0.5", "unit": "s⁻¹"},
      {"measurement": "half time of the slowest phase of the binding kinetics", "setting": "[4]", "value": "about 20 sec"},
      {"measurement": "kobs1 (fast phase of binding)", "setting": "[4]; 10 μM MgTNP-ATP, Fig. 8a", "value": "234 ± 26", "unit": "s⁻¹"},
      {"measurement": "kobs2 (intermediate phase of binding)", "setting": "[4]; 10 μM MgTNP-ATP, Fig. 8a", "value": "11 ± 1", "unit": "s⁻¹"},
      {"measurement": "k (slow phase of binding)", "setting": "[4]; 20 μM MgTNP-ATP, single exponential fit, Fig. 8c", "value": "0.035 ± 0.001", "unit": "s⁻¹"},
      {"measurement": "kobs1 (fast phase of binding)", "setting": "[4]; 35 μM MgTNP-ATP, Fig. 8b", "value": "475 ± 90", "unit": "s⁻¹"},
      {"measurement": "kobs2 (intermediate phase of binding)", "setting": "[4]; 35 μM MgTNP-ATP, Fig. 8b", "value": "19 ± 2", "unit": "s⁻¹"},
      {"measurement": "observed first order rate constant, slow phase of binding", "setting": "[4]; average value across all concentrations of MgTNP-ATP", "value": "0.035 ± 0.008", "unit": "s⁻¹"},
      {"measurement": "k1", "setting": "[4]; fast phase, fit to eq (vi)", "value": "0.20 ± 0.01", "unit": "μM^-2s^-1"},
      {"measurement": "k2 (intermediate phase) as percentage of k1 (fast phase)", "setting": "[4]; fit to equation (ix)", "value": 5.9, "unit": "%"},
      {"measurement": "k-2 (intermediate phase) as percentage of k-1 (fast phase)", "setting": "[4]; fit to equation (ix)", "value": 6.6, "unit": "%"},
      {"measurement": "k-2", "setting": "[4]; fit to eq (ix)", "value": "10.6 ± 0.2", "unit": "s⁻¹"},
      {"measurement": "K2 (equilibrium constant between two conformational states, k-2/k2)", "setting": "[4]; fit to eq (vii)", "value": "0.02 ± 0.02"},
      {"measurement": "k2", "setting": "[4]; fit to eq (vii)", "value": "31 ± 1", "unit": "s⁻¹"},
      {"measurement": "k-2", "setting": "[4]; fit to eq (vii)", "value": "0.6 ± 0.6", "unit": "s⁻¹"},
      {"measurement": "K2 (equilibrium constant between two conformational states, k-2/k2)", "setting": "[4]; fit to eq (viii)", "value": "0.47 ± 0.05"},
      {"measurement": "k2", "setting": "[4]; fit to eq (viii)", "value": "22.6 ± 0.7", "unit": "s⁻¹"},
      {"measurement": "k-2", "setting": "[4]; fit to eq (viii)", "value": "10.5 ± 0.2", "unit": "s⁻¹"},
      {"measurement": "k-2", "setting": "[4]; fit to eq (x)", "value": "12.6 ± 0.2", "unit": "s⁻¹"},
      {"measurement": "k2", "setting": "[4]; fit to eq (xi)", "value": "0.013 ± 0.001", "unit": "μM^-2s^-1"},
      {"measurement": "k-2", "setting": "[4]; fit to eq (xi)", "value": "12.7 ± 0.2", "unit": "s⁻¹"},
      {"measurement": "k2", "setting": "[4]; fit to eq (xii)", "value": "0.016 ± 0.001", "unit": "μM^-2 s^-1"},
      {"measurement": "k-2", "setting": "[4]; fit to eq (xii)", "value": "13.5 ± 0.3", "unit": "s⁻¹"}
    ]},
    {"molecule": "CC(=O)SCCNC(=O)CCNC(=O)[C@H](O)C(C)(C)COP(=O)(O)OP(=O)(O)OC[C@H]1O[C@@H](n2cnc3c(N)ncnc32)[C@H](O)[C@@H]1OP(=O)(O)O", "note": "[acetyl CoA]", "values": [
      {"measurement": "n (Hill coefficient)", "setting": "[1]; activation by acetyl CoA, fit to equation (i), Fig. 4a", "value": "2.6 ± 0.2"},
      {"measurement": "Ka (activation constant)", "setting": "[1]; activation by acetyl CoA, fit to equation (i), Fig. 4a, 30°C, pH 7.8", "value": "6.9 ± 0.2", "unit": "µM"},
      {"measurement": "kcat2", "setting": "[1]; saturating acetyl CoA, fit to equation (i), Fig. 4a", "value": "20.2 ± 0.1", "unit": "s⁻¹"},
      {"measurement": "increase in the turnover number for ATP cleavage", "setting": "[2]; induced by acetyl CoA when MgATP is present up to 1 mM (data not shown)", "value": 7, "unit": "fold"},
      {"measurement": "decrease in maximum fluorescence intensity", "setting": "[3]; addition of 0.25 mM acetyl CoA to 5 μM MgTNP-ATP + 10 μM enzyme", "value": "approximately 32%"}
    ]}
  ]
}
